Where two headings read alike, the source gives them in different places.
Legend:
Type in all cases: cell-based
MCF7 cells = test: Cell Titer-Glo 3D cell viability assay, 48 h, MCF7
Procedure: (§1) Cell Culture: Cell viability was assessed using the MCF7 and MCF10A cell lines. Cells were maintained in relevant media throughout the study, in an incubator set to 37°C and 5% CO2, with media changes every 2–3 days. […] Compound plate preparation: […] Plates were sealed and stored at −4°C prior to use. Viability Assay: […] Plates were incubated for 48 h in a humidified incubator set to 37°C and 5% CO2. […] Cat #G9682). Plates were centrifuged briefly and incubated protected from light for 30 min at 30°C. Luminescence signal was measured using a CLARIOstar Plus microplate reader (BMG Labtech). Data Analysis: Raw relative luminescence unit (RLU) data were de-randomised prior to background subtraction. Viability was determined as a percentage of vehicle control (DMSO only). % Viability = ((Sample RLU—Mean Positive Control) ÷ (Mean Negative Control—Mean Positive Control)) × 100.

MCF10A cells = test: Cell Titer-Glo 3D cell viability assay, 48 h, MCF10A
Procedure: as §1

[1] = as above; settings: human, MCF10A cells, MCF10A, 48 h, % of vehicle control
Procedure: as §1

[2] = Homo sapiens, MCF7; read-out: MCF7 IC50 Reached
[3] = Homo sapiens, MCF-10A; read-out: MCF10 IC50 Reached
[4] = Homo sapiens, MCF-10A; MCF10A, 48 h viability; read-out: IC50

Structure (SMILES)	IC50 (MCF7 cells; [2]) [nM]	IC50 (in words) (MCF7 cells; MCF7, up to […])	IC50 (MCF10A cells; [3]) [nM]	IC50 (in words) (MCF10A cells; MCF10A, up to […])	IC50 (MCF10A cells; [4]) [nM]	other results
Cc1cc([C@@H](C)Nc2ccccc2C(=O)O)c2nc(N3CCOCC3)cc(=O)n2c1 [AZD 6482]	> 2500	did not reach IC50 values	> 2500	did not reach IC50 values	–	–
CC[C@@H]1C(=O)N(C)c2cnc(Nc3ccc(C(=O)NC4CCN(C)CC4)cc3OC)nc2N1C1CCCC1 [BI 2536]	–	–	–	–	–	IC50 (MCF7 cells; Homo sapiens, MCF7, 48 h): < 100 nM; IC50 (MCF7 cells; Homo sapiens, MCF7, read-out: MCF7 IC50 Reached): < 2500 nM; IC50 (MCF10A cells; Homo sapiens, MCF-10A, 48 h): ~1000 nM; IC50 (MCF10A cells; Homo sapiens, MCF-10A, read-out: MCF10 IC50 Reached): < 2500 nM; viability at 48 h, […] ([1]; 0.0025 uM): 92.4%; viability at 48 h, […] ([1]; 0.025 uM): 67.7%; viability at 48 h, […] ([1]; 0.25 uM): 72.3%; viability at 48 h, […] ([1]; 2.5 uM): 33.9%
Nc1ccn([C@@H]2O[C@H](CO)[C@@H](O)[C@@H]2O)c(=O)n1 [Cytarabine]	> 2500	–	> 2500	–	–	–
Nc1ccn([C@@H]2O[C@H](CO)[C@@H](O)C2(F)F)c(=O)n1 [Gemcitabine]	> 2500	–	< 2500	–	< 250	–
Nc1nc2[nH]cc(CCc3ccc(C(=O)N[C@@H](CCC(=O)O)C(=O)O)cc3)c2c(=O)[nH]1 [Pemetrexed]	> 2500	did not reach IC50 values	> 2500	did not reach IC50 values	–	–
NS(=O)(=O)OC[C@@H]1C[C@@H](n2ccc3c(N[C@H]4CCc5ccccc54)ncnc32)C[C@@H]1O [Pevonedistat]	< 2500	–	> 2500	–	> 2500	IC50 (MCF7 cells; Homo sapiens; MCF7, 48 h viability; read-out: IC50): < 100 nM

— publication PMC13242297, “Drug response profile-based machine learning enables strategic cell line and compound selection for drug development” (Bioinformatics, 2026)
